Source: the supplement of paper PMC13386468

How the values were obtained:
Test in all cases: IC50 for competition of protein binding to Kinobeads
Conditions in all cases: assay detail: Kinobeads competition in P. falciparum blood-stage lysate
UniProt Q8IK92 = biological target: UniProt Q8IK92
UniProt Q8ILQ7 = biological target: UniProt Q8ILQ7
UniProt Q76NL8 = biological target: UniProt Q76NL8
UniProt Q8I5Y3 = biological target: UniProt Q8I5Y3
UniProt O97284 = biological target: UniProt O97284
UniProt Q8I206 = biological target: UniProt Q8I206
UniProt Q8IBS5 = biological target: UniProt Q8IBS5
UniProt Q8IBS5, sequence (Q8IBS5 whole entry): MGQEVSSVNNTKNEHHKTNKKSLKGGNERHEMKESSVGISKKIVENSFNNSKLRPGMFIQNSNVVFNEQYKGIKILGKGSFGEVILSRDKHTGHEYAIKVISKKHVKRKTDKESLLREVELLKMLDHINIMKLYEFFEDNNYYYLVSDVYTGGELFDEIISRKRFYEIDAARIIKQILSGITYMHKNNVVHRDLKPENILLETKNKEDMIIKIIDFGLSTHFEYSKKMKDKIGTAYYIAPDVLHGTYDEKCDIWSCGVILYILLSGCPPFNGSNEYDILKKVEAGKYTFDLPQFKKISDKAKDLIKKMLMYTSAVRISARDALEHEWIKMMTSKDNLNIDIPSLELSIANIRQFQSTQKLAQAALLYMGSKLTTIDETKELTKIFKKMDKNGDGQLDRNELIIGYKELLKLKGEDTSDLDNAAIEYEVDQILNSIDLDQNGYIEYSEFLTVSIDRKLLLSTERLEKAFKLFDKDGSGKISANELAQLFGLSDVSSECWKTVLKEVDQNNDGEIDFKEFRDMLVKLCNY

UniProt Q8IAW0 = biological target: UniProt Q8IAW0
UniProt Q8IJW0 = biological target: UniProt Q8IJW0
UniProt Q8IJZ7 = biological target: UniProt Q8IJZ7
UniProt Q8IIC0 = biological target: UniProt Q8IIC0
UniProt Q8IDM2 = biological target: UniProt Q8IDM2
UniProt Q8IIF4 = biological target: UniProt Q8IIF4
UniProt Q8I447 = biological target: UniProt Q8I447
UniProt Q8I5M2 = biological target: UniProt Q8I5M2
UniProt Q8I5D2 = biological target: UniProt Q8I5D2
UniProt Q8I5D2, sequence (Q8I5D2 whole entry): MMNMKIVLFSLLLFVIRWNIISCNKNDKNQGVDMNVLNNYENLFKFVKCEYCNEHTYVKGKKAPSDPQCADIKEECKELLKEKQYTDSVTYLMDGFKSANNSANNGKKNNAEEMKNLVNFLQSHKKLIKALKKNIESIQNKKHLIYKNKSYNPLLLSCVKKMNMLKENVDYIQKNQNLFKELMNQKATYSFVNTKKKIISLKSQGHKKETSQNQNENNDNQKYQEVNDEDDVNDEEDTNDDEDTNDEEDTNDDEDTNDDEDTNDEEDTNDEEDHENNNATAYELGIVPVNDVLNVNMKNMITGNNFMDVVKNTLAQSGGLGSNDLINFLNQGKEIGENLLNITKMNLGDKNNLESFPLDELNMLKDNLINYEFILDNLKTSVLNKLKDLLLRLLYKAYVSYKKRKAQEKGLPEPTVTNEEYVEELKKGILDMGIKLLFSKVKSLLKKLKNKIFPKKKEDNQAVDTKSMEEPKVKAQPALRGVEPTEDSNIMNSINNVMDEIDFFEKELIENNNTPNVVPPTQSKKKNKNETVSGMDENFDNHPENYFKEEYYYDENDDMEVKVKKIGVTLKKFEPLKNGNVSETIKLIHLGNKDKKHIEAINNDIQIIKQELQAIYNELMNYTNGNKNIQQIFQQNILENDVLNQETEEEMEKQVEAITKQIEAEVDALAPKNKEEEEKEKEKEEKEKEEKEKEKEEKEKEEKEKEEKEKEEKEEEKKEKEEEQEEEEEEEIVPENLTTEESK

UniProt Q8IDW1 = biological target: UniProt Q8IDW1
UniProt C6KSX2 = biological target: UniProt C6KSX2
UniProt Q8I2S6 = biological target: UniProt Q8I2S6
UniProt Q8I0V4 = biological target: UniProt Q8I0V4
UniProt Q8IBQ9 = biological target: UniProt Q8IBQ9
UniProt Q8I3M5 = biological target: UniProt Q8I3M5
UniProt Q8I4Z4 = biological target: UniProt Q8I4Z4
UniProt Q8ILK1 = biological target: UniProt Q8ILK1
UniProt C0H570 = biological target: UniProt C0H570
UniProt Q8IE22 = biological target: UniProt Q8IE22
UniProt Q8I395 = biological target: UniProt Q8I395
UniProt Q8I395, sequence (Q8I395 whole entry): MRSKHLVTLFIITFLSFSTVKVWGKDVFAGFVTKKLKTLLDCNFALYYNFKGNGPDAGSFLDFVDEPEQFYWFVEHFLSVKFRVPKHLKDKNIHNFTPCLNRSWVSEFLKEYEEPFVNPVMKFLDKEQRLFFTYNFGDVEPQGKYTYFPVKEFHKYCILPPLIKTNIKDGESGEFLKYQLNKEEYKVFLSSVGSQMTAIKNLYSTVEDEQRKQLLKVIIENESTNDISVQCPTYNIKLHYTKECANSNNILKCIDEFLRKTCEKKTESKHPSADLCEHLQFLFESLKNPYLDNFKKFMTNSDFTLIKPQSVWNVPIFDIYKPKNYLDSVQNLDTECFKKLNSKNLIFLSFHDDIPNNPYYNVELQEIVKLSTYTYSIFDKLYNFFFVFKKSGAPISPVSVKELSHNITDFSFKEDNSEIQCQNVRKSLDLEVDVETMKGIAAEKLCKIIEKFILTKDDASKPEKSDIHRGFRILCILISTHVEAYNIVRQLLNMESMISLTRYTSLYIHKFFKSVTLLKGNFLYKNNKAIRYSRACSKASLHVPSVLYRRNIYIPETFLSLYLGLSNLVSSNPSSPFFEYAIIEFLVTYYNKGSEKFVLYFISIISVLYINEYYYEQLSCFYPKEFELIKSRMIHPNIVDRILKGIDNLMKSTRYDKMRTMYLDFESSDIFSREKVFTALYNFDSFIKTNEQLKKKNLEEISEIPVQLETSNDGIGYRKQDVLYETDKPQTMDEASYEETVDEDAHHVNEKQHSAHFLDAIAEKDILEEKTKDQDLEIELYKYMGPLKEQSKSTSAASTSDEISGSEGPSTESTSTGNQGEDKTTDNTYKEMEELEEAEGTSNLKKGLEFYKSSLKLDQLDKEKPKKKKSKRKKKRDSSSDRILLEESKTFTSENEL

UniProt Q8ID96 = biological target: UniProt Q8ID96
UniProt Q7KQK0 = biological target: UniProt Q7KQK0
UniProt Q8II42 = biological target: UniProt Q8II42
UniProt Q8IL11 = biological target: UniProt Q8IL11
UniProt Q8IL11, sequence (Q8IL11 whole entry): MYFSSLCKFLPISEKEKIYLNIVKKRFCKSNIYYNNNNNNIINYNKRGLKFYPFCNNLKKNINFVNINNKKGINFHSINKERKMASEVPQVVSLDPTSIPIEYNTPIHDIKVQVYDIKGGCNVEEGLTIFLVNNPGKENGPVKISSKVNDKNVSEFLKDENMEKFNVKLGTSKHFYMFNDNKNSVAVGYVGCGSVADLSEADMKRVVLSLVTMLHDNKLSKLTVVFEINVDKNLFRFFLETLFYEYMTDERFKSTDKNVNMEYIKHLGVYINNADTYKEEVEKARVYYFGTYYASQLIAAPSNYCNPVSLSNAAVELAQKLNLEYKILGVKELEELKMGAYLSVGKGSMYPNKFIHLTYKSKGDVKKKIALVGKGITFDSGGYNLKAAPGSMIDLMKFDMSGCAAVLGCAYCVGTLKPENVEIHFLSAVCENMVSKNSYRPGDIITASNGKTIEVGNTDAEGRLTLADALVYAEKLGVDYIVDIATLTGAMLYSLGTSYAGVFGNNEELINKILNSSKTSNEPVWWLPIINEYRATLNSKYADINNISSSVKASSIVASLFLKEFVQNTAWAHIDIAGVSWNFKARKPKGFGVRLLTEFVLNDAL

UniProt Q8IHR6 = biological target: UniProt Q8IHR6
UniProt C0H5C2 = biological target: UniProt C0H5C2
UniProt C6KSR5 = biological target: UniProt C6KSR5
UniProt Q8II36 = biological target: UniProt Q8II36
UniProt Q8II36, sequence (Q8II36 whole entry): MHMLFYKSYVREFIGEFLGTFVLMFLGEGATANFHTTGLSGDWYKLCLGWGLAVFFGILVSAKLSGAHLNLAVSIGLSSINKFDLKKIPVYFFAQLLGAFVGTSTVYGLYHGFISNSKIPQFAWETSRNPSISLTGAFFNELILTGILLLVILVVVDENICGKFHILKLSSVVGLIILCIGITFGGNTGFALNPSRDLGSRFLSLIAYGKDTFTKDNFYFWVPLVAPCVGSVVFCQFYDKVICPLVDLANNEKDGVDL

UniProt Q8IL13 = biological target: UniProt Q8IL13
UniProt Q8ILZ7 = biological target: UniProt Q8ILZ7
UniProt Q8IEE9 = biological target: UniProt Q8IEE9
UniProt Q8IKF0 = biological target: UniProt Q8IKF0
UniProt Q8IIH7 = biological target: UniProt Q8IIH7
UniProt Q8IL86 = biological target: UniProt Q8IL86
UniProt Q8I6S4 = biological target: UniProt Q8I6S4
UniProt Q8IIL0 = biological target: UniProt Q8IIL0
UniProt Q8IIL0, sequence (Q8IIL0 whole entry): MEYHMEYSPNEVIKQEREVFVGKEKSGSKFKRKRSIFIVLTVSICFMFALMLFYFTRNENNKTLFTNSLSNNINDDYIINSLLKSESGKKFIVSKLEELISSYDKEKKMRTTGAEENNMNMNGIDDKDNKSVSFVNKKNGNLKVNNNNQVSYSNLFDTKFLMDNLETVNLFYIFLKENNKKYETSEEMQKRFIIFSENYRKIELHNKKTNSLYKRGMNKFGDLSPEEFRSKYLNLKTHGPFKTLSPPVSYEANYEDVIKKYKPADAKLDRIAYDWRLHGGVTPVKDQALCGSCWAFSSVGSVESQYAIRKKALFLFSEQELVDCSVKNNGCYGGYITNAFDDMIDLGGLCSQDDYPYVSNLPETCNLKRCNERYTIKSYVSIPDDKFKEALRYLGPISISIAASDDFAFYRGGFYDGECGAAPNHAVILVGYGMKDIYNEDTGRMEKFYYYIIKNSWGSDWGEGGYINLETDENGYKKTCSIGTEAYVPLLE

UniProt Q8IJS7 = biological target: UniProt Q8IJS7
UniProt Q8IBN7 = biological target: UniProt Q8IBN7
UniProt C0H4Z7 = biological target: UniProt C0H4Z7
UniProt Q8IIL7 = biological target: UniProt Q8IIL7
UniProt O77328 = biological target: UniProt O77328
UniProt Q8IIV1 = biological target: UniProt Q8IIV1
UniProt Q8IBM9 = biological target: UniProt Q8IBM9
UniProt Q8IL71 = biological target: UniProt Q8IL71
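Note: native unpurified kinases from lysate captured on beads bearing immobilized kinase inhibitors, with bead-bound kinases quantified by mass spectrometry across compound doses.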

UniProt Q76NL8, sequence (Q76NL8 whole entry): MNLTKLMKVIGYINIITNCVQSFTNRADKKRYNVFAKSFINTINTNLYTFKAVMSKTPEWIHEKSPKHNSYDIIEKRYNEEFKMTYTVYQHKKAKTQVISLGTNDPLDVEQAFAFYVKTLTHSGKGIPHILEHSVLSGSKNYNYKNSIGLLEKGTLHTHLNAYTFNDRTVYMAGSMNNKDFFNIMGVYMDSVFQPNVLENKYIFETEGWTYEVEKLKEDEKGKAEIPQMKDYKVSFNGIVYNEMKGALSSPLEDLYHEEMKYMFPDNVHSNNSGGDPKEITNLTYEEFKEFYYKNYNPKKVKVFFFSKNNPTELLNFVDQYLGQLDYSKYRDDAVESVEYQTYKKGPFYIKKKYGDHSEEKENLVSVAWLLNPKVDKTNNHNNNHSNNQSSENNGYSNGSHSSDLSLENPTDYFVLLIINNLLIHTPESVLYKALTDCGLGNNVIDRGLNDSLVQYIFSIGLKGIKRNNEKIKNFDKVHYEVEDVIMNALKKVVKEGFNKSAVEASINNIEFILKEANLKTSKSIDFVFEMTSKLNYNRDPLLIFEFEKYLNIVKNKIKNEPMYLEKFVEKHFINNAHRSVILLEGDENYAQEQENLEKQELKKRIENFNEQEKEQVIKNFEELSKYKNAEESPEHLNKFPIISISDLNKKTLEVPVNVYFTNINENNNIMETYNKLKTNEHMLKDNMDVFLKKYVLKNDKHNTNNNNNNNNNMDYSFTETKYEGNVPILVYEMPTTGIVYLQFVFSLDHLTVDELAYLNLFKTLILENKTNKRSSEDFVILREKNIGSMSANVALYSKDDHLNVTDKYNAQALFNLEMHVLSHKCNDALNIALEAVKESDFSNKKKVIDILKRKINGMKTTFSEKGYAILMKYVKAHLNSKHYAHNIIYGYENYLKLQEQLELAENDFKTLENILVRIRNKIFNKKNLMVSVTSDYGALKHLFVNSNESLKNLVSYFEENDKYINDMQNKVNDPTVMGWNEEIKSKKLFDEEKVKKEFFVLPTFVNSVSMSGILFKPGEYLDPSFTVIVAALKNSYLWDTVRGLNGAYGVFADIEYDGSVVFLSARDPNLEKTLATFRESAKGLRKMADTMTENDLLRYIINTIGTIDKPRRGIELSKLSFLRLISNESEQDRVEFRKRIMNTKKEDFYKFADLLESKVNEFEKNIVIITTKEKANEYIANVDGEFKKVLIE
UniProt Q8ILQ7, sequence (Q8ILQ7 whole entry): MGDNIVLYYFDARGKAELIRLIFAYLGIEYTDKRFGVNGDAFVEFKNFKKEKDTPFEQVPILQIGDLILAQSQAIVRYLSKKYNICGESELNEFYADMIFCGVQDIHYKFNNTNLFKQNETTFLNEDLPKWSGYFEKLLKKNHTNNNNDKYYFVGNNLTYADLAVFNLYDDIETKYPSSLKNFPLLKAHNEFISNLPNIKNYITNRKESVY

## O=c1[nH]c2ccc(Cl)cc2c(NC2CN3CCC2CC3)c1-c1nc2ccccc2[nH]1 (stereo unspecified) [CHIR-124]
UniProt Q8IK92
  IC50: > 20 µM
UniProt Q8ILQ7
  IC50: > 20 µM
UniProt Q76NL8
  IC50: > 20 µM
UniProt Q8I5Y3
  IC50: > 20 µM
UniProt O97284
  IC50: > 20 µM
UniProt Q8I206
  IC50: > 20 µM
UniProt Q8IBS5
  IC50: > 20 µM
UniProt Q8IAW0
  IC50: > 20 µM
UniProt Q8IJW0
  IC50: > 20 µM
UniProt Q8IJZ7
  IC50: > 20 µM
UniProt Q8IIC0
  IC50: > 20 µM
UniProt Q8IDM2
  IC50: > 20 µM
UniProt Q8IIF4
  IC50: > 20 µM
UniProt Q8I447
  IC50: > 20 µM
UniProt Q8I5M2
  IC50: > 20 µM
UniProt Q8I5D2
  IC50: > 20 µM
UniProt Q8IDW1
  IC50: > 20 µM
UniProt C6KSX2
  IC50: > 20 µM
UniProt Q8I2S6
  IC50: > 20 µM
UniProt Q8I0V4
  IC50: > 20 µM
UniProt Q8IBQ9
  IC50: > 20 µM
UniProt Q8I3M5
  IC50: > 20 µM
UniProt Q8I4Z4
  IC50: > 20 µM
UniProt Q8ILK1
  IC50: > 20 µM
UniProt C0H570
  IC50: > 20 µM
UniProt Q8IE22
  IC50: > 20 µM
UniProt Q8I395
  IC50: > 20 µM
UniProt Q8ID96
  IC50: > 20 µM
UniProt Q7KQK0
  IC50: 0.85 µM
UniProt Q8II42
  IC50: > 20 µM
UniProt Q8IL11
  IC50: > 20 µM
UniProt Q8IHR6
  IC50: > 20 µM
UniProt C0H5C2
  IC50: > 20 µM
UniProt C6KSR5
  IC50: > 20 µM
UniProt Q8II36
  IC50: > 20 µM
UniProt Q8IL13
  IC50: > 20 µM
UniProt Q8ILZ7
  IC50: > 20 µM
UniProt Q8IEE9
  IC50: > 20 µM
UniProt Q8IKF0
  IC50: > 20 µM
UniProt Q8IIH7
  IC50: > 20 µM
UniProt Q8IL86
  IC50: > 20 µM
UniProt Q8I6S4
  IC50: > 20 µM
UniProt Q8IIL0
  IC50: > 20 µM
UniProt Q8IJS7
  IC50: > 20 µM
UniProt Q8IBN7
  IC50: > 20 µM
UniProt C0H4Z7
  IC50: > 20 µM
UniProt Q8IIL7
  IC50: > 20 µM
UniProt O77328
  IC50: > 20 µM
UniProt Q8IIV1
  IC50: > 20 µM
UniProt Q8IBM9
  IC50: > 20 µM
UniProt Q8IL71
  IC50: > 20 µM
